Experimental data published in ChEMBL document CHEMBL2046376, “Synthesis and antimicrobial activity of amide derivatives of polyether antibiotic-salinomycin” (2012).
In brackets after ≈: the same amount, converted by molar mass. Activity calls are given as the source filed them. No cut-off for these calls is given here.

Key:
Format in all cases: functional
Staphylococcus aureus [1] = test: Antibacterial activity against hospital-acquired methicillin-resistant Staphylococcus aureus 401/10 after 18 hrs by twofold serial agar dilution technique; conditions: 401/10, 18 h
Staphylococcus aureus [2] = test: Antibacterial activity against hospital-acquired methicillin-sensitive Staphylococcus aureus 442/11 after 18 hrs by twofold serial agar dilution technique; conditions: 442/11, 18 h
Staphylococcus aureus [3] = test: Antibacterial activity against Staphylococcus aureus ATCC 29213 assessed as zone of inhibition at 400 ug/disc after 18 hrs by disc diffusion method; conditions: ATCC 29213, 18 h, read-out: DIZ
Staphylococcus aureus [4] = test: Antibacterial activity against hospital-acquired methicillin-sensitive Staphylococcus aureus 440/11 after 18 hrs by twofold serial agar dilution technique; conditions: 440/11, 18 h
[5] = system: Bordetella bronchiseptica; test: Antibacterial activity against Bordetella bronchiseptica ATCC 4617 after 18 hrs by twofold serial agar dilution technique
Staphylococcus aureus [6] = test: Antibacterial activity against hospital-acquired methicillin-resistant Staphylococcus aureus 481/11 after 18 hrs by twofold serial agar dilution technique; conditions: 481/11, 18 h
Pseudomonas aeruginosa [7] = test: Antibacterial activity against Pseudomonas aeruginosa ATCC 15442 after 18 hrs by twofold serial agar dilution technique
Pseudomonas aeruginosa [8] = test: Antibacterial activity against Pseudomonas aeruginosa ATCC 27853 after 18 hrs by twofold serial agar dilution technique
Staphylococcus aureus [9] = test: Antibacterial activity against Staphylococcus aureus ATCC 25923 assessed as zone of inhibition at 400 ug/disc after 18 hrs by disc diffusion method; conditions: ATCC 25923, 18 h, read-out: DIZ
Staphylococcus aureus [10] = test: Antibacterial activity against hospital-acquired methicillin-resistant Staphylococcus aureus 450/11 after 18 hrs by twofold serial agar dilution technique; conditions: 450/11, 18 h
Staphylococcus aureus [11] = test: Antibacterial activity against hospital-acquired methicillin-resistant Staphylococcus aureus 393/10 after 18 hrs by twofold serial agar dilution technique; conditions: 393/10, 18 h
Staphylococcus aureus [12] = test: Antibacterial activity against hospital-acquired methicillin-resistant Staphylococcus aureus 399/10 after 18 hrs by twofold serial agar dilution technique; conditions: 399/10, 18 h
Pseudomonas aeruginosa [13] = test: Antibacterial activity against Pseudomonas aeruginosa NCTC 6749 after 18 hrs by twofold serial agar dilution technique
Staphylococcus aureus [14] = test: Antibacterial activity against hospital-acquired methicillin-resistant Staphylococcus aureus 451/11 after 18 hrs by twofold serial agar dilution technique; conditions: 451/11, 18 h
Candida albicans [15] = test: Antifungal activity against Candida albicans ATCC 10231 after 24 hrs by twofold serial agar dilution technique
Staphylococcus aureus [16] = test: Antibacterial activity against hospital-acquired methicillin-resistant Staphylococcus aureus 400/10 after 18 hrs by twofold serial agar dilution technique; conditions: 400/10, 18 h
Escherichia coli [17] = test: Antibacterial activity against Escherichia coli NCTC 8196 after 18 hrs by twofold serial agar dilution technique
Staphylococcus aureus [18] = test: Antibacterial activity against Staphylococcus aureus NCTC 4163 assessed as zone of inhibition at 400 ug/disc after 18 hrs by disc diffusion method; conditions: NCTC 4163, 18 h, read-out: DIZ
Candida parapsilosis = test: Antifungal activity against Candida parapsilosis ATCC 22019 after 24 hrs by twofold serial agar dilution technique
Staphylococcus aureus [19] = test: Antibacterial activity against Staphylococcus aureus ATCC 6538 after 18 hrs by twofold serial agar dilution technique; conditions: ATCC 6538, 18 h
Staphylococcus aureus [20] = test: Antibacterial activity against Staphylococcus aureus ATCC 25923 after 18 hrs by twofold serial agar dilution technique; conditions: ATCC 25923, 18 h
Candida albicans [21] = test: Antifungal activity against Candida albicans ATCC 90028 after 24 hrs by twofold serial agar dilution technique
Staphylococcus aureus [22] = test: Antibacterial activity against hospital-acquired methicillin-sensitive Staphylococcus aureus 447/11 after 18 hrs by twofold serial agar dilution technique; conditions: 447/11, 18 h
Staphylococcus aureus [23] = test: Antibacterial activity against hospital-acquired methicillin-sensitive Staphylococcus aureus 448/11 after 18 hrs by twofold serial agar dilution technique; conditions: 448/11, 18 h
[24] = system: Staphylococcus epidermidis; test: Antibacterial activity against Staphylococcus epidermidis ATCC 35984 assessed as zone of inhibition at 400 ug/disc after 18 hrs by disc diffusion method; conditions: ATCC 35984, 18 h, read-out: DIZ
[25] = system: Staphylococcus epidermidis; test: Antibacterial activity against Staphylococcus epidermidis ATCC 12228 after 18 hrs by twofold serial agar dilution technique; conditions: ATCC 12228, 18 h
Staphylococcus aureus [26] = test: Antibacterial activity against hospital-acquired methicillin-sensitive Staphylococcus aureus 443/11 after 18 hrs by twofold serial agar dilution technique; conditions: 443/11, 18 h
Escherichia coli [27] = test: Antibacterial activity against Escherichia coli ATCC 25922 after 18 hrs by twofold serial agar dilution technique
Staphylococcus aureus [28] = test: Antibacterial activity against hospital-acquired methicillin-resistant Staphylococcus aureus 452/11 after 18 hrs by twofold serial agar dilution technique; conditions: 452/11, 18 h
[29] = system: Staphylococcus epidermidis; test: Antibacterial activity against Staphylococcus epidermidis ATCC 12228 assessed as zone of inhibition at 400 ug/disc after 18 hrs by disc diffusion method; conditions: ATCC 12228, 18 h, read-out: DIZ
Staphylococcus aureus [30] = test: Antibacterial activity against hospital-acquired methicillin-sensitive Staphylococcus aureus 444/11 after 18 hrs by twofold serial agar dilution technique; conditions: 444/11, 18 h
Staphylococcus aureus [31] = test: Antibacterial activity against Staphylococcus aureus ATCC 29213 after 18 hrs by twofold serial agar dilution technique; conditions: ATCC 29213, 18 h
Staphylococcus aureus [32] = test: Antibacterial activity against hospital-acquired methicillin-sensitive Staphylococcus aureus 441/11 after 18 hrs by twofold serial agar dilution technique; conditions: 441/11, 18 h
Staphylococcus aureus [33] = test: Antibacterial activity against Staphylococcus aureus NCTC 4163 after 18 hrs by twofold serial agar dilution technique; conditions: NCTC 4163, 18 h
Staphylococcus aureus [34] = test: Antibacterial activity against hospital-acquired methicillin-sensitive Staphylococcus aureus 449/11 after 18 hrs by twofold serial agar dilution technique; conditions: 449/11, 18 h
Staphylococcus aureus [35] = test: Antibacterial activity against hospital-acquired methicillin-sensitive Staphylococcus aureus 445/11 after 18 hrs by twofold serial agar dilution technique; conditions: 445/11, 18 h
Staphylococcus aureus [36] = test: Antibacterial activity against hospital-acquired methicillin-resistant Staphylococcus aureus 394/10 after 18 hrs by twofold serial agar dilution technique; conditions: 394/10, 18 h
Proteus vulgaris = test: Antibacterial activity against Proteus vulgaris NCTC 4635 after 18 hrs by twofold serial agar dilution technique
Staphylococcus aureus [37] = test: Antibacterial activity against hospital-acquired methicillin-resistant Staphylococcus aureus 482/11 after 18 hrs by twofold serial agar dilution technique; conditions: 482/11, 18 h
Escherichia coli [38] = test: Antibacterial activity against Escherichia coli ATCC 10538 after 18 hrs by twofold serial agar dilution technique
Staphylococcus aureus [39] = test: Antibacterial activity against hospital-acquired methicillin-sensitive Staphylococcus aureus 446/11 after 18 hrs by twofold serial agar dilution technique; conditions: 446/11, 18 h
[40] = system: Staphylococcus epidermidis; test: Antibacterial activity against Staphylococcus epidermidis ATCC 35984 after 18 hrs by twofold serial agar dilution technique; conditions: ATCC 35984, 18 h
Staphylococcus aureus [41] = test: Antibacterial activity against Staphylococcus aureus ATCC 6538 assessed as zone of inhibition at 400 ug/disc after 18 hrs by disc diffusion method; conditions: ATCC 6538, 18 h, read-out: DIZ

## CC[C@@H](C(=O)[C@@H](C)[C@@H](O)[C@H](C)[C@@H]1O[C@@H]([C@@H](CC)C(=O)Nc2ccccc2)CC[C@@H]1C)[C@H]1O[C@]2(C=C[C@@H](O)[C@]3(CC[C@@](C)([C@H]4CC[C@](O)(CC)[C@H](C)O4)O3)O2)[C@H](C)C[C@@H]1C
Staphylococcus aureus [1]
  MIC: 4 µg/mL (≈ 4.84 µM)
Staphylococcus aureus [2]
  MIC: 2 µg/mL (≈ 2.42 µM)
Staphylococcus aureus [3]
  zone of inhibition at 400 µg/disc: 21 mm
Staphylococcus aureus [4]
  MIC: 2 µg/mL (≈ 2.42 µM)
[5]
  Activity: inactive
Staphylococcus aureus [6]
  MIC: 4 µg/mL (≈ 4.84 µM)
Pseudomonas aeruginosa [7]
  Activity: inactive
Pseudomonas aeruginosa [8]
  Activity: inactive
Staphylococcus aureus [9]
  zone of inhibition at 400 µg/disc: 18 mm
Staphylococcus aureus [10]
  MIC: 4 µg/mL (≈ 4.84 µM)
Staphylococcus aureus [11]
  MIC: 4 µg/mL (≈ 4.84 µM)
Staphylococcus aureus [12]
  MIC: 4 µg/mL (≈ 4.84 µM)
Pseudomonas aeruginosa [13]
  Activity: inactive
Staphylococcus aureus [14]
  MIC: 4 µg/mL (≈ 4.84 µM)
Candida albicans [15]
  Activity: inactive
Staphylococcus aureus [16]
  MIC: 4 µg/mL (≈ 4.84 µM)
Escherichia coli [17]
  Activity: inactive
Staphylococcus aureus [18]
  zone of inhibition at 400 µg/disc: 19 mm
Candida parapsilosis
  Activity: inactive
Staphylococcus aureus [19]
  MIC: 2 µg/mL (≈ 2.42 µM)
Staphylococcus aureus [20]
  MIC: 2 µg/mL (≈ 2.42 µM)
Candida albicans [21]
  Activity: inactive
Staphylococcus aureus [22]
  MIC: 2 µg/mL (≈ 2.42 µM)
Staphylococcus aureus [23]
  MIC: 2 µg/mL (≈ 2.42 µM)
[24]
  zone of inhibition at 400 µg/disc: 20 mm
[25]
  MIC: 2 µg/mL (≈ 2.42 µM)
Staphylococcus aureus [26]
  MIC: 2 µg/mL (≈ 2.42 µM)
Escherichia coli [27]
  Activity: inactive
Staphylococcus aureus [28]
  MIC: 4 µg/mL (≈ 4.84 µM)
[29]
  zone of inhibition at 400 µg/disc: 22 mm
Staphylococcus aureus [30]
  MIC: 2 µg/mL (≈ 2.42 µM)
Staphylococcus aureus [31]
  MIC: 2 µg/mL (≈ 2.42 µM)
Staphylococcus aureus [32]
  MIC: 2 µg/mL (≈ 2.42 µM)
Staphylococcus aureus [33]
  MIC: 2 µg/mL (≈ 2.42 µM)
Staphylococcus aureus [34]
  MIC: 2 µg/mL (≈ 2.42 µM)
Staphylococcus aureus [35]
  MIC: 2 µg/mL (≈ 2.42 µM)
Staphylococcus aureus [36]
  MIC: 4 µg/mL (≈ 4.84 µM)
Proteus vulgaris
  Activity: inactive
Staphylococcus aureus [37]
  MIC: 4 µg/mL (≈ 4.84 µM)
Escherichia coli [38]
  Activity: inactive
Staphylococcus aureus [39]
  MIC: 2 µg/mL (≈ 2.42 µM)
[40]
  MIC: 4 µg/mL (≈ 4.84 µM)
Staphylococcus aureus [41]
  zone of inhibition at 400 µg/disc: 20 mm
